# Test results published in US5182386A (priority 1991, dated 1993).
# Key:
# GABA receptor = conditions: Tallman et al., 1978; cited from earlier work
# GABAa receptor = GABAa receptor (benzodiazepine site) binding, displacement of 3H-RO15-1788 [3H-Flumazenil]; conditions: rat cortical tissue; 0.5 nM 3H-RO15-1788; 30 min at 4° C.
# Method: Assays are carried out as described in Thomas and Tallman (J. Bio. Chem. 156: 9838-9842, J. Neurosci. 3:433-440, 1983). Rat cortical tissue is dissected and homogenized in 25 volumes (w/v) of 0.05M Tris HCl buffer (pH 7.4 at 4° C.). The tissue homogenate is centrifuged in the cold (4° ) at 20,000×g for 20'. The supernatant is decanted and the pellet is rehomogenized in the same volume of buffer and again centrifuged at 20,000×g. The supernatant is decanted and the pellet is frozen at -20° C. overnight. The pellet is then thawed and rehomogenized in 25 volume (original wt/vol) of buffer and the procedure is carried out twice. The pellet is finally resuspended in 50 volumes (w/vol of 0.05M Tris HCl buffer (pH 7.4 at […]).
# Incubations contain […] of tissue homogenate, […] of radioligand 0.5 nM (^3 H-RO15-1788 [^3 H-Flumazenil] specific activity 80 Ci/mmol), drug or blocker and buffer to a total volume of […]. Incubations are carried for 30 min at 4° C. then are rapidly filtered through GFB filters to separate free and bound ligand. Filters are washed twice with fresh 0.05M Tris HCl buffer (pH 7.4 at 4° C. ) and counted in a liquid scintillation counter. […] diazepam is added to some tubes to determine nonspecific binding. Data are collected in triplicate determinations, averaged and % inhibition of total specific binding is calculated. Total Specific Binding=Total-Nonspecific. In some cases, the amounts of unlabeled drugs is varied and total displacement curves of binding are carried out. Data are converted to a form for the calculation of IC50 and Hill Coefficient (nH).
compound,measurement,setting,value
"CN1CCc2cc3c(cc2C1C1OC(=O)c2c1ccc1c2OCO1)OCO3 (single isomer, unassigned; (+)) [(+) bicuculline]",block of enhancement of benzodiazepine binding by GABA agonists,GABA receptor,blocked
"CN1CCc2cc3c(cc2C1C1OC(=O)c2c1ccc1c2OCO1)OCO3 (single isomer, unassigned; (-)) [(-) bicuculline]",block of enhancement of benzodiazepine binding by GABA agonists,GABA receptor,much less active
"COc1ccc(-c2nc3c[nH]c4ccccc4n-3c2=O)cc1 [Compound 1, 2-(4-methoxyphenyl)-imidazo-[1,2-a]-quinoxalin-1(5H)-one]",IC50,GABAa receptor,33 nM
"O=c1c(-c2ccccc2)nc2c[nH]c3ccccc3n1-2 [Compound 2, 2-Phenyl-imidazo-[1,2-a]-quinoxalin-1(5H)-one]",IC50,GABAa receptor,33 nM
"COc1cccc(-c2nc3c[nH]c4ccccc4n-3c2=O)c1 [Compound 3, 2-(3-Methoxyphenyl)-imidazo-[1,2-a]-quinoxalin-1(5H)-one]",IC50,GABAa receptor,70 nM
